# In article PMC9558510 (Cancers, 2022):
# Experiments:
# [1] = Logistic regression of dose reduction/discontinuation vs predicted exposure; format: in vivo, human; settings: logistic regression, standard dosing assumed
# Description: (§1) Data were collected and processed using Microsoft Excel 2016 Version 16.0 (Microsoft Corporation, Redmond, WA, USA). Statistical calculations and visualization of results were performed with R Studio Version 1.2.5042 (RStudio Incorporation, Boston, MA, USA) running R version 4.0.5 (R Foundation for Statistical Computing, Vienna, Austria, 2020). For further analysis, serum concentrations were divided into groups according to time interval post-dose as follows: 0–5 h, 5–10 h, 10–14 h, and >14 h for (hydroxy-)dabrafenib and 0–10 h, 10–20 h, 20–30 h, and >30 h for trametinib. Concentrations < LLOQ were excluded from further statistical analyses. The concentrations of the same patient at the same dosage and within the same post-dose group were summarized into an individual mean serum concentration for descriptive statistical analysis to account for potential bias caused by the unbalanced number of samples per patient. […] The Wilcoxon […] test was used for unpaired samples. The correlations between individual PK parameters sampled from the conditional distribution during the generation of EBE (methods for estimation see below) and age, sex, body mass index (BMI), and co-medication were analyzed using analysis of variance (ANOVA) and Spearman’s correlation coefficient. Logistic regression was used to compare the risk of treatment discontinuations or dose reductions (dabrafenib dose reduction or discontinuation, trametinib dose reduction or discontinuation, or any dose reduction or discontinuation) with the corresponding predicted trough concentrations and area under the curve of a dosing interval (AUCτ) of dabrafenib, hydroxy-dabrafenib, and trametinib as well as with the composite predicted dabrafenib/hydroxy-dabrafenib trough concentration and with composite dabrafenib/hydroxy-dabrafenib AUCτ assuming standard dosing. The Hosmer–Lemeshow test was used to evaluate the goodness of fit for our logistic regression model. Due to the explorative nature of the study, p-values obtained from multiple comparisons were not corrected for multiple testing. A p-value < 0.05 was considered statistically significant.
# [2] = Empirical Bayesian estimates of serum AUCτ and Cmin from serum samples with existing popPK models; settings: steady state, 150 mg q12h dabrafenib
# Description: For each compound, a popPK model developed by Balakirouchenane et al. was assessed regarding its suitability to create EBE using Monolix 2021R1 (Lixoft SAS, Antony, Fance). […] The predictive performance of the models was estimated by calculating the prediction error (PE), mean prediction error (MPE), mean absolute prediction error (MAPE), and mean relative deviation (MRD):(1) PEi[%]=Cpredicted,i−Cobserved,i/Cobserved,i·100 (2) MPE[%]=1/n∑i=1nPEi (3) MAPE[%]=1/n∑i=1n|PEi| (4) MRD=10^x;x=1/n∑i=1n(log10[Cpredicted,i]−log10[Cobserved,i])^2
# Estimates for AUCτ were generated for every occasion for the standard doses (150 mg q12h for dabrafenib, 2 mg q24h for trametinib). In addition, the individual predicted Cmin at a steady state was generated since not all patients contributed trough samples. The same estimates were used in the logistic regression model.
# [3] = Observed steady-state serum concentrations (LC-MS/MS) in melanoma patients; format: in vivo, human
# Description: Serum samples were collected regularly during each routine outpatient visit from study enrollment until January 2022 or until treatment discontinuation. If possible, blood sampling was performed before the next drug administration, but any time interval between the last administration and blood withdrawal was accepted. The steady-state was assumed after continuous dosing for fourteen days for both compounds.
# Hydroxy-dabrafenib concentrations were analyzed using a different previously published LC-MS/MS method with an LLOQ of 10 ng/mL [37]. […] Hydroxy-dabrafenib was not quantified in capillary blood samples as the methodology was not available at the time of analysis. All the methods have been validated according to the guidelines of the U.S. Food and Drug Administration and/or the European Medicines Agency.
# as §1
# [4] = serum, dabrafenib dose of 150 mg q12h
# [5] = standard dose, BMI (kg/m2) < 30
# [6] = standard dose, BMI (kg/m2) >= 30
# [7] = standard dose, P-gp inducer: no
# [8] = standard dose, P-gp inducer: yes
# [9] = standard dose, P-gp inhibitor: no
# [10] = standard dose, P-gp inhibitor: yes
# [11] = standard dose, age above 65: no
# [12] = standard dose, age above 65: yes
# [13] = standard dose, moderate CYP2C8 inhibitor: no
# [14] = standard dose, moderate CYP2C8 inhibitor: yes
smiles,measurement,setting,value
CC(C)(CO)c1nc(-c2cccc(NS(=O)(=O)c3c(F)cccc3F)c2F)c(-c2ccnc(N)n2)s1 [hydroxy-dabrafenib],relationship between dose reduction or discontinuation due to AE and predicted serum trough concentrations or AUCτ,[1],no significant relationships
same,median of the average predicted trough concentrations,[2],84.5 ng/mL
same,median of the average predicted AUCτ,[2]; average over all observations per patient,6040 ng·h/mL
same,median of individual mean trough concentration,[3]; [4],76.0 ng/mL
same,range of individual mean trough concentration,[3]; [4],37.2 to 171.0 ng/mL
same,effect of co-medication with at least one P-gp inducer on individual mean trough concentrations,"[3]; serum, standard dose",no effect
same,serum Cmin mean,[3]; [5],73.6 ng/mL
same,serum Cmin median,[3]; [5],72.9 ng/mL
same,serum Cmin mean,[3]; [6],97.6 ng/mL
same,serum Cmin median,[3]; [6],68.3 ng/mL
same,serum Cmin mean,[3]; [7],101 ng/mL
same,serum Cmin median,[3]; [7],90.9 ng/mL
same,serum Cmin mean,[3]; [8],62.1 ng/mL
same,serum Cmin median,[3]; [8],56.6 ng/mL
same,serum Cmin mean,[3]; [9],100 ng/mL
same,serum Cmin median,[3]; [9],78 ng/mL
same,serum Cmin mean,[3]; [10],77.3 ng/mL
same,serum Cmin median,[3]; [10],70.2 ng/mL
same,serum Cmin mean,"[3]; standard dose, PPI: no",93.1 ng/mL
same,serum Cmin median,"[3]; standard dose, PPI: no",78 ng/mL
same,serum Cmin mean,"[3]; standard dose, PPI: yes",53.7 ng/mL
same,serum Cmin median,"[3]; standard dose, PPI: yes",53.7 ng/mL
same,serum Cmin mean,[3]; [11],92.7 ng/mL
same,serum Cmin median,[3]; [11],77.6 ng/mL
same,serum Cmin mean,[3]; [12],66.2 ng/mL
same,serum Cmin median,[3]; [12],55.6 ng/mL
same,serum Cmin mean,[3]; [13],89.4 ng/mL
same,serum Cmin median,[3]; [13],78 ng/mL
same,serum Cmin mean,[3]; [14],86.3 ng/mL
same,serum Cmin median,[3]; [14],76.6 ng/mL
same,serum Cmin mean,"[3]; standard dose, sex female",86 ng/mL
same,serum Cmin median,"[3]; standard dose, sex female",68.3 ng/mL
same,serum Cmin mean,"[3]; standard dose, sex male",77.3 ng/mL
same,serum Cmin median,"[3]; standard dose, sex male",72.9 ng/mL
